Experimental data taken from a melting point compilation (Tetko et al.; mined from patent text by program, amines drawn as free bases though some values may be those of a salt).

| melting point | SMILES |
| --- | --- |
| 239 to 242 °C | Clc1nc2cc3ccccc3cc2nc1Cl |
| 141 to 142 °C | COCn1ncc2cc(C(=O)NN)ccc21 |
| 164 to 165 °C | O=C(O)c1ccc(-c2nc(-c3ccc(C(F)(F)F)cc3)cs2)cc1 |
| > 300 °C | Cc1ccsc1C(=O)c1sc(Nc2ccc(-n3ccnc3)cc2)nc1N |
| 142 to 145 °C | NC(Cc1coc2c(Cl)cccc12)=NO |
| 100 to 101 °C | COc1ccc(C(=NOCc2ccccc2)c2cccc([N+](=O)[O-])c2)cc1 |
| 270 to 274 °C | C=C(Nc1nc(-c2ccccc2)c(-c2nc3ccccc3c(=O)n2-c2ccc(Cl)cc2)s1)c1ccco1 |
| 89 to 91 °C | CN(C(=O)OC(C)(C)C)c1cc(Oc2ccc(-c3ccc(O)cc3)cc2)ccc1N |
| 95 °C | O=[N+]([O-])c1cc(Cl)c(Oc2ccccc2)cc1Oc1ccccc1 |
| 82 to 84 °C | COc1c(C)c(C)c(OC)c(C(CCCC(=O)O)c2cccnc2)c1C (configuration not stated) |
| 86 to 88 °C | COc1ccc(S(=O)(=O)C(C)(Cc2ccc(Br)cc2)C(=O)NO)cc1 (configuration not stated) |
| 166 to 168 °C | O=C(O)COc1ccc(SCc2cc(-c3ccc(C(F)(F)F)cc3)no2)c2c1CCC2 |
| 180 °C | Cc1cccc(NC(=O)NCC(=O)N(CC(=O)OC(C)(C)C)c2ccccc2Nc2ccccc2)c1 |
| 191 to 195 °C | CN(C)CCNc1nc(Nc2cccc(NS(C)(=O)=O)c2)nc2[nH]cnc12 |
| 138 °C | O=C(O)CSc1cc(-c2ccccc2)nc2ccccc12 |
| 111 °C | CCC(CC)N(O)C(=O)Nc1cccc(Oc2ccccc2)c1 |
| 118 to 120 °C | COc1ccc(C2=C(c3ccc(S(C)(=O)=O)cc3)CCC2)cc1Cl |
| 221 to 224 °C | COc1nc(-c2ccccc2)c2c(n1)N(c1c(F)cccc1F)C(=O)NC2 |
| 112 to 114 °C | N#CSc1nc(C(F)(F)C(F)F)nc2ccccc12 |
| 249 to 250 °C | C/C(=C\c1ccc(C(=O)O)cc1)c1ccc2c(c1)C(C)(C)CC(=O)C2(C)C |
| > 250 °C | Nc1nc(S(N)=O)c2[nH]cnc2n1 (configuration not stated) |
| 143 to 144 °C | CC(=O)OC(C)c1ccc(CCOc2ccc(CC3SC(=O)NC3=O)cc2)nc1 (configuration not stated) |
| 96 to 101 °C | O=C(Nc1ccccc1)N1CCC(C(Nc2ccc(F)cc2)c2ccc(F)cc2)CC1 (configuration not stated) |

| melting point | SMILES |
| --- | --- |
| 125 to 126 °C | CS(=O)(=O)C=C(N)C1(c2ccc(Cl)cc2)CCC1 |
| 271 to 273 °C | COc1cc(C(=O)NS(=O)(=O)c2ccccc2C)ccc1Cn1cc(/C=C/C(=O)N(C)C)c2ccc(/C=C/C(=O)N(C)C)cc21 |
| 224 to 225 °C | O=c1[nH]c2cc([N+](=O)[O-])cnc2n1-c1ccc2c(c1)OCO2 |
| 158 °C | Nc1ccc(C2CC2)cc1C(=O)O |
| 114 to 117 °C | CCCCCCCCCCCCNC(=O)c1cc(-c2ccc(OC)cc2)cc(-c2cccc(Cl)c2OCC(=O)O)c1 |
| 221 to 223 °C | Cn1cc(C(=O)NCc2ccc(Cl)cc2)c(=O)c2cc(CN3CC=C(F)CC3)ccc21 |
| 215 to 216 °C | Cc1c(C(=O)O)ccc2c3ccccc3n(Cc3ccccc3)c12 |
| 44 to 47 °C | Cc1ccc(F)c([Si](C)(C)C)c1C(=O)N(C)C(C)(C)C |
| 114 to 116 °C | CCOC(=O)c1cnccc1NC(=O)Cc1c(F)cccc1Cl |
| 120 to 121 °C | O=c1c(Br)cn(Cc2ccccc2)cc1Cc1ccccc1 |
| 83 to 84 °C | CN(c1ccc(F)c(C(F)(F)F)c1)c1nccc(-c2ccc(F)c(C(F)(F)F)c2)n1 |
| 230 to 232 °C | Cc1c(C(=O)O)oc2cc(S)ccc12 |
| 117 to 119 °C | COc1cc2c(-c3ccccc3)csc2c(Cl)c1Cl |
| 195 to 197 °C | Cc1cc(-n2ccc(OCc3ccc(F)cc3)cc2=O)sc1C(=O)NCc1ccccc1 |
| 136 to 137 °C | N#CC1=CC(CF)(CF)Oc2ccc([N+](=O)[O-])cc21 |
| 172 to 174 °C | CC(=CCc1c(C)nc(N)nc1N)c1cc(Cl)ccc1Cl |
| 203 to 206 °C | O=C(N[C@@H](Cc1c[nH]cn1)C(=O)OCCc1cccs1)C(Cc1cccc2ccccc12)Cc1cccc2ccccc12 |
| 122 °C | CN(C)Cc1cccc(Oc2ccc3c(c2)S(=O)(=O)NC2CCCN32)c1 (configuration not stated) |
| 204 to 205 °C | Cc1ncn(-c2nc(C(=O)NCc3ccc(F)c(C)c3)c(O)c(=O)n2C)n1 |
| 159 °C | COc1cc(Nc2nccc(-c3nccs3)n2)cc(OC)c1OC |
| 94 to 95 °C | CCOCc1cc2ccc(OCc3ccccc3)cc2o/c1=N\c1ccccc1 |
| 188 °C | CCCCCCCCCC(=O)c1ccc(OCc2ccc(C=C3SC(=S)NC3=O)cc2)c(CCC)c1O |
| 168 °C | Cc1cc(Cl)ccc1OCC(=O)N1Cc2ccc(C(=O)NCc3cccnc3)n2Cc2ccccc21 |

| melting point | SMILES |
| --- | --- |
| 213 to 215 °C | Cc1ccc(S(=O)(=O)Nc2cc3c(c(C(=O)O)c2)NCCO3)cc1 |
| 88 to 90 °C | CCc1noc(C)c1-c1[nH]c2ccccc2c1CN(C)C |
| 194 °C | O=C(NCCN1CCC(Nc2nc3ccccc3n2Cc2ccc(F)cc2)CC1)c1ccc(F)cc1 |
| 53 °C | Nc1cc(Cl)cc(C(F)(F)F)c1N |
| 180 to 181 °C | O=C(O)COc1cccc2c1CCc1sc(S(=O)(=O)CCCC(c3ccccc3)c3ccccc3)nc1-2 |
| 169 to 170 °C | CN(C(=O)OCC(Cl)(Cl)Cl)C1CN(C(=O)Nc2ccc(C(F)(F)F)cc2)N=C1c1ccc(Cl)cc1 (configuration not stated) |
| 116 to 119 °C | CCCCc1ccc(N=C2NCCCN2)cc1 |
| 57.5 °C | CC(C)(C)c1cc(SCCSCCC(=O)O)cc(C(C)(C)C)c1O |
| 201 to 203 °C | CN(Cc1ccc(COc2cccc3c2CN(C2CCC(=O)NC2=O)C3=O)cc1)c1ccccc1 (configuration not stated) |
| 79 °C | CC(C)(C)c1cc(CC2CCCCC2=O)cc(C(C)(C)C)c1O (configuration not stated) |
| 185 to 186 °C | NS(=O)(=O)c1c(-c2ccccc2)sc2ccccc12 |
| > 260 °C | Cn1ccnc1C1Cn2cc(C(=O)NCc3ccc(Cl)cc3)c(=O)c3cc(CN4CCOCC4)cc(c32)O1 (configuration not stated) |
| 176 to 177 °C | O=C1C=CCC2=C3C(=CCN3C13COc1cc4c(cc13)OCO4)CCC2 (configuration not stated) |
| 120 to 123 °C | C[N+]([O-])=C(Cn1ccnc1)c1ccco1 |
| 180 to 182 °C | CC(C)(C)C(NC(=O)c1ccc(Cl)cc1)NC(=NC#N)NCc1ccccc1Cl (configuration not stated) |
| 132 °C | CCCc1nc(C)n2nc(C)nc2c1Cc1ccc(-c2ccccc2C#N)cc1 |
| > 250 °C | COc1cc2c(cc1C#Cc1ccccc1)NC(=O)CC(c1cccc(C#N)c1)=N2 |
| 126 to 128 °C | Cc1nc(CCN2CCOCC2)c2c(n1)N(CC#N)C(=O)C(N)O2 (configuration not stated) |
| 170 to 172 °C | COC(=O)CN(C)C(=O)c1c2ccc(Cl)ccc-2[nH]c1=O |
| 84.5 to 86 °C | CCC(=O)OCC1OC(n2cc(F)c(=O)n(C(=O)c3cccc(OC)c3OC)c2=O)CC1OC(=O)CC (configuration not stated) |
| 226 to 228 °C | CCCc1nc2c(N)nc3cc(Br)ccc3c2n1NC(C)C |
| 135 to 136 °C | COc1nc(OC)c(C(C)C)c(C(C#N)c2cc(Cl)cc(Cl)c2)n1 (configuration not stated) |
| 193 to 194 °C | CN1C(=O)Cn2c(CCl)nnc2-c2cc(Cl)ccc21 |

| melting point | SMILES |
| --- | --- |
| 82 to 83 °C | CCCCCCCCCCCCCCCCSCC(COS(C)(=O)=O)NC(=O)OC (configuration not stated) |
| 243 to 245 °C | CC(=O)c1cnc2c(NC(=O)c3c(Cl)cccc3Cl)cccc2c1 |
| 167 to 168 °C | COc1ccc2c(c1)c(C(C)=O)cn2C |
| 139 °C | Cc1cc(SC2=C(O)CC(CCc3ccc(O)cc3)(CCc3ccc(O)cc3)OC2=O)c(C(C)(C)C)cc1OS(=O)(=O)N(C)C |
| 90 °C | COc1ccc(F)cc1C(C)(C)c1cc(F)ccc1O |
| 172 to 174 °C | COc1cccc2c1C(C)(C)CC(O)(C(F)(F)F)C2Nc1cccc2c1cnn2C (configuration not stated) |
| 121 to 124 °C | CCOP(=O)(CCCOn1cnc2c(Cl)nc(NC=O)nc21)OCC |
| 186 to 190 °C | O=C(C#Cc1ccc(-c2ccc(Cl)cc2)cn1)Nc1ccc(CN2CCC(O)CC2)cc1 |
| 135 to 140 °C | CN(CCOC[C@@H]1CC(c2ccc(-c3ccc(N4C[C@H](Cn5ccnn5)OC4=O)cc3F)cn2)=NO1)CC(=O)O |
| 144 to 145 °C | CN1C(=O)CCC1(O)c1ccc(Cl)c(S(=O)(=O)NCc2ccccc2Cl)c1 (configuration not stated) |
| 225 to 230 °C | CC(C)C(/C=C/C(=O)O)=C(c1ccc(F)cc1)c1ccc(F)cc1 |
| 155 to 156 °C | O=C(O)c1coc(Cc2ccccc2)n1 |
| 166 to 168 °C | CSc1ncnc2c(N(C)C)nc(Cl)nc12 |
| 275 to 280 °C | Cc1c2ccccc2c(C(=O)O)c2c(C(=O)O)cccc12 |
| 166 to 168 °C | CS(=O)(=O)c1ccc(-c2cnn(-c3cc(F)cc(F)c3)c(=O)c2-c2ccc(F)cc2)cc1 |
| 115 to 118 °C | CC(=O)NC1(c2ccccc2)CCN(CC[C@@H](c2ccc(Cl)c(Cl)c2)[C@@H](O)c2ccnn2-c2ccccc2)CC1 (racemic) |
| 132 to 142 °C | CCCCCCCCCCCCCCCCCC(=O)Nc1cccc(C(=O)N(CC(=O)O)CC(=O)O)c1 |
| 92 to 94 °C | Nc1cncc(C(O)c2ccccc2)c1 (configuration not stated) |
| 58 to 60 °C | Cc1cc(CCCCCCC(OS(=O)(=O)O)c2nnnn2C)on1 (configuration not stated) |
| 133 to 134 °C | COc1ccc2c(CNCCCCCC(=O)O)cc3cc(OC)c(OC)cc3c2c1 |
| 144 to 146 °C | CC(C)Cn1c(CNC(=O)OC(C)(C)C)c(-c2ccc(Cl)cc2)c2cc(C(N)=O)ccc2c1=O |
| 128 to 130 °C | O=S(=O)(/C=C/c1ccccc1)CS(=O)(=O)/C=C/c1ccccc1 |
| 236 to 240 °C | CC(C)(C)NC(=O)Nc1nc2nc(NCCCN3CCOCC3)ncc2cc1-c1c(Cl)cccc1Cl |

| SMILES | melting point |
| --- | --- |
| COC(=O)c1ncn(C(c2ccccc2)c2ccccc2)c1C(=O)OC | 93 °C |
| C=CCN(CC=C)Cc1nc(-c2ncn3c2[C@@H]2CCN2C(=O)c2cc(F)ccc2-3)no1 | 100 to 105 °C |
| BrCc1c(Br)cccc1Br | 77 to 78 °C |
| COC(=O)c1cccc(Cn2nc(C(N)=O)c3ccccc32)c1 | 166 to 168 °C |
| Nc1cc(N2CCN(C34CC5CC(CC(C5)C3)C4)CC2)nc(N)n1 | 265 to 268 °C |
